The text below walks through data of patent US20240092756A1, “METHODS AND COMPOSITION FOR KRAS MODIFICATIONS” (2692372 ONTARIO, INC., priority 2020, published 2024).

Assay [1] deals with KRAS G12C Lite (SEQ ID NO:3) (Homo sapiens, UniProt P01116, C118S/C51S/C80S/G12C/S136P/S39C). Nature of the assay: Intact mass analysis (LC-MS) of covalent modification, KRAS G12C Lite. Type of assay: binding. Conditions: intact mass spectrometry; covalent modification of KRAS G12C Lite. Also on record: key to KRAS Lite Modification: a: KRAS Lite modified. The essentials: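 Protein (2 μM) reacted with compound (100 μM) for 24 h at 25° C in 20 mM HEPES pH 8, 150 mM NaCl, 2% DMSO, 2% glycerol, then analysed by intact-mass LC-MS (C4 column, positive-ion TOF). Up to 8 cysteine adducts allowed on deconvolution; adducts <2% of base peak ignored. % modification = adduct intensity over total protein plus adduct intensities.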

In assay [2] the target is T1, KRAS G12C (SEQ ID NO:1 or SEQ ID NO:2) (Homo sapiens, UniProt P01116, G12C).
T1 construct: purchased
Nature of the assay: Intact mass analysis (LC-MS) of covalent modification, KRAS G12C. Set-up: key to KRAS G12C Modification: b: KRAS G12C modified. The class given is binding. Conditions: intact mass spectrometry; covalent modification of KRAS G12C FL. On the procedure: The covalent modification of the proteins with the compounds were evaluated using intact mass analysis by liquid chromatography-mass spectrometry instrument (LC-MS/MS).
The reaction solution (20 μL) was prepared in 96-well plate and contained the protein (2 μM), the compound (100 μM), HEPES buffer (20 mM, pH 8), 2% DMSO, 2% glycerol, and 150 mM NaCl. The reaction was allowed to proceed for 24 h at 25° C. The reaction solution (1 μL) was injected into the LC/MS/MS without any further sample preparation.
The LC-MS/MS instrument comprises of a Waters G2-XS quadrupole-time of flight (QTof) mass spectrometer and a Waters Acuity I-class Ultra-High Performance Liquid Chromatography (UPLC) system. The I-class UPLC system includes a binary solvent manager (BSM), and an Acquity sample manager (SM). The mobile phase consisted of: A) 0.1% (v/v) formic acid in MilliQ water; B) 0.1% (v/v) formic acid acetonitrile. Gradients were run over 5 min and proceeded as follows: A:B, 85:15, 0.0-0.7 min, 85:15→15:85, 0.7-1.5 min, 10:90, 1.5-4 min, 10:90→85:15, 4-4.5 min, 85:15, 4.5-5 min. The analytical column was a Waters BEH C4 column 1.7 μm (50×1 mm) column with pore sizes of 300 Å. The TOF MS data was collected in positive ion mode (m/z of 400-2000 Da) using MassLynx software (Waters).
The spectral deconvolution was performed using UNIFI software (Waters). The added mass of the protein upon covalent modification to cysteine residues were specified. Multiple modification of up to 8 cysteine was allowed. All the adducts with signal intensities of <2% of the base peak were ignored. The % modification was calculated as the adduct signal intensity over the total intensities of the protein peaks and the adducts.

The subject of assay [3] is phospho-ERK1/2 in MIA PaCa-2 cells (express KRAS G12C). Nature of the assay: ERK1/2 phosphorylation in MIA PaCa-2 cells. The class given is cell-based, human. Also on record: key: X: KRAS G12C bound and modulated in cells.

Each structure is given as a SMILES string.

Chain of KRAS G12C Lite (SEQ ID NO:3) (P01116 other isoform, or with tags, fused parts or gaps G12C/S39C/C51S/C80S/C118S/S136P): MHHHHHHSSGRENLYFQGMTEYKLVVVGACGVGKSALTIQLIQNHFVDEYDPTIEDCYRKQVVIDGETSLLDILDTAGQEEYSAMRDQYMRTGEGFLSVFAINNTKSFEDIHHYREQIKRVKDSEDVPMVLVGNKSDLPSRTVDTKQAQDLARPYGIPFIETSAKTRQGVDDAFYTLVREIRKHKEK
T1 sequence (P01116 with tags, fused parts or gaps isoform P01116-2 G12C): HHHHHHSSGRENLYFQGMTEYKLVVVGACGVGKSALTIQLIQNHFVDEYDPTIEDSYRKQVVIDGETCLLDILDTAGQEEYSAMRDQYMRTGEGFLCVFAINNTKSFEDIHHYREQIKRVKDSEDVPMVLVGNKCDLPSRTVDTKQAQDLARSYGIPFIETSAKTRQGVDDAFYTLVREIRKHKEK

Regarding `Cc1ccnc(C(C)C)c1-n1c(=O)nc(NC2CN(S(=O)(=O)c3c(F)c(F)c(F)c(F)c3C(F)(F)F)C2)c2cc(F)c(-c3c(O)cccc3F)nc21` [Compound 15A, 6-fluoro-7-(2-fluoro-6-hydroxyphenyl)-1-(2-isopropyl-4-methylpyridin-3-yl)-4-((1-((2,3,4,5-tetrafluoro-6-(trifluoromethyl)phenyl)sulfonyl)azetidin-3-yl)amino)pyrido[2,3-d]pyrimidin-2(1H)-one], the “KRAS Lite Modification” value in assay [1] is recorded as “a”. Also, the “KRAS G12C Modification” value in assay [2] was “b”. Moreover, the “pERK - MIA PaCa-2 - (6 hours, 5 uM)” value in assay [3] is on record as “X”.

For the compound `Cc1ccnc(C(C)C)c1-n1c(=O)nc(NC2CN(S(=O)(=O)c3c(F)c(F)c(F)c(F)c3C(F)(F)F)C2)c2cc(F)c(Cl)nc21` [Compound 14A, 7-chloro-6-fluoro-1-(2-isopropyl-4-methylpyridin-3-yl)-4-((1-((2,3,4,5-tetrafluoro-6-(trifluoromethyl)phenyl)sulfonyl)azetidin-3-yl)amino)pyrido[2,3-d]pyrimidin-2(1H)-one], the “KRAS Lite Modification” value in assay [1] is “a”. Also, the “KRAS G12C Modification” value in assay [2] is given as “b”. For the same compound, the “pERK - MIA PaCa-2 - (6 hours, 5 uM)” value in assay [3] is on record as “X”.
